Patent publication US20230158066A1, “ENCAPSULATED CARBONYL IRON SALT COMPOSITIONS AND PROCESS THEREOF” (priority 2020, published 2023)

Assay: Particle density (bulk density), USP <616> method 1
Assay type: physicochemical
Conditions: untapped powder, W/V0
Text: Particle density or Bulk density is the density of the solids (determined by the composition), which determines the particle density, together with the amount of occluded air. It's the ratio of mass to volume (including the inter-particulate void volume) of an untapped powder sample. It depends on both the density of powder particle and arrangement of the particles. The bulk density influenced by preparation method, treatment and storage of the samples.
The method used as per the reference of USP general chapter <616> method 1. • 1. Pass a quantity of material sufficient to complete the test through sieve greater than equal to 1 mm, if necessary to break up agglomerates that may formed. • 2. Fill the test sample approx. 150 g with 0.1% accuracy (W) in dry gradual 250 mL cylinder (readable to 2 mL) carefully. • 3. Read the unsettled apparent volume (V0) to the nearest graduated unit. • 4. Calculate the particle density by following formula;

Row | Molecule | Particle density
1 | O=C([O-])/C=C/C(=O)[O-].[Fe+2] [Ferrous fumarate] | 2.14 g/mL
2 | Ferrous Ascorbate | 0.75 g/mL
3 | Ferrous sulfate | 1.26 g/mL
